Source: patent publication US11690824B2, “Antibacterial compounds” (THE GENERAL HOSPITAL CORPORATION, priority 2018, dated 2023)
In brackets after ≈: the same amount, converted by molar mass. Like-named read-outs stand apart in the source and are kept apart here.

Key:
S. aureus (MRSA) MW2 = assay: Minimal inhibitory concentration (MIC) assay, micro-dilution; assay type: cell-based; settings: for antibiotic activity / potency relative to nTZDpa: growing S. aureus cells
Source text: (§1) Bacterial strains, growth conditions, and persister isolation. Methicillin-resistant S. aureus strains, MW2 BAA-1707, ATCC 33591, and JE2, methicillin-susceptible S. aureus strains, NCTC 8325, Newman, and ATCC 29213, vancomycin-resistant S. aureus strain, VRS1, Enterococcus faecium E007, vancomycin-resistant E. faecium strains, C68,^7 WB312, and WC196, Klebsiella pneumoniae WGLW2 (BEI Resources, Manassas, Va., USA), Acinetobacter baumannii ATCC 17978, Pseudomonas aeruginosa PA14, and Enterobacter aerogenes ATCC 13048 were used to test antimicrobial activity (Table 1). S. aureus strains were grown in tryptic soy broth (TSB) (BD, Franklin Lakes, N.J., USA), and E. faecium was grown in brain-heart infusion (BHI) broth (BD, Franklin Lakes, N.J., USA) at 37° C. K. pneumoniae, A. baumannii, P. aeruginosa, and E. aerogenes were grown in Luria Bertani (LB) broth (BD, Franklin Lakes, N.J., USA) at 37° C.
(§2) Minimal inhibitory concentration (MIC) assay. The MICS of antibiotics were determined by the standard micro-dilution method recommended by the Clinical and Laboratory Standards Institute. MIC assays were conducted in biological triplicate.

human erythrocytes = assay: Human blood hemolysis; assay type: cell-based; settings: human erythrocytes
Description: Human blood hemolysis. Hemolytic activity was evaluated as described in a previous study. Briefly, 100 μL of 4% human erythrocytes (Rockland Immunochemicals, Limerick, Pa., USA) was added to 100 μL of 2-fold serial dilutions of compounds in PBS, 0.2% DMSO (negative control), or 2% Triton-X 100 (positive control) in a 96-well plate. The 96-well plate was incubated at 37° C. for 1 h and then centrifuged at 500× g for 5 min. 50 μL of the supernatant was transferred to a fresh 96-well plate, and absorbance of supernatants was measured at 540 nm. Percent hemolysis was calculated using the following equation: (A540 nm of compound treated sample−A540 nm of 0.1% DMSO treated sample)/(A540 nm of 1% Triton X-100 treated sample−A540 nm of 0.1% DMSO treated sample)×100. HC50 (concentration of a compound causing 50% hemolysis) was determined using SigmaPlot 10.0 (Systat Software Inc., San Jose, Calif., USA).

[1] = test system: MRSA MW2 persisters (stationary phase); assay: Persister killing assay; assay type: cell-based, S. aureus; settings: 64 μg/mL
Description: Persister killing assay. […] Persister cells of MRSA MW2 were prepared by growing cultures overnight to stationary phase at 37° C. at 200 rpm and washing 3 times with PBS. 1 mL of ˜2×10^8 CFU/mL MRSA persisters was added to 1 mL of PBS containing 2-fold of the desired concentration of antibiotics in a 96-well assay block (Corning Costar 3960). The assay block was incubated at 37° C., with shaking at 200 rpm. At specific times, […] were removed, washed once with PBS, serially diluted and spot-plated on TSA plates. Colonies were counted to enumerate the number of live cells after overnight incubation at 37° C. These experiments were conducted in biological triplicate.

MRSA MW2 = assay: Antibiotic synergy test (checkerboard); assay type: cell-based, S. aureus; settings: nTZDpa in combination with the named antibiotic, synergy if FICI ≤ 0.5
Description: Antibiotic synergy test. Antibiotic synergism was evaluated by the checkerboard method. Briefly, 2-fold serial dilutions of nTZDpa were combined with 2-fold serial dilutions of each other antibiotic, which created an 8×8 matrix in a 96-well microtiter plate. The fractional inhibitory concentration index (FICI) was calculated as follows: FICI=MIC of compound A in combination/MIC of compound A alone+MIC of compound B in combination/MIC of compound B alone. The interaction between two compounds was defined, as follows: synergy if FICI≤0.5, no interaction if 0.5<FICI≤4, and antagonism if FICI>4.

P. aeruginosa PA14 = assay: MIC assay; assay type: cell-based, Pseudomonas aeruginosa; settings: P. aeruginosa PA14
Source text: as §1, §2

E.faecium E007 = assay: MIC assay; assay type: cell-based, Enterococcus faecium; settings: E.faecium E007
Source text: as §1, §2

E. faecium WB312 = assay: MIC assay; assay type: cell-based, Enterococcus faecium; settings: E. faecium WB312
Source text: as §1, §2

E. faecium WC196 = assay: MIC assay; assay type: cell-based, Enterococcus faecium; settings: E. faecium WC196
Source text: as §1, §2

E. faecium C68 = assay: MIC assay; assay type: cell-based, Enterococcus faecium; settings: E. faecium C68
Source text: as §1, §2

E. aerogenes ATCC 13048 = assay: MIC assay; assay type: cell-based, Enterobacter aerogenes; settings: E. aerogenes ATCC 13048
Source text: as §1, §2

A. baumannii ATCC 17978 = assay: MIC assay; assay type: cell-based, Acinetobacter baumannii; settings: A. baumannii ATCC 17978
Source text: as §1, §2

S. aureus Newman = assay: MIC assay; assay type: cell-based; settings: S. aureus Newman
Source text: as §1, §2

S. aureus ATCC 33591 = assay: MIC assay; assay type: cell-based; settings: S. aureus ATCC 33591
Source text: as §1, §2

S. aureus ATCC 29213 = assay: MIC assay; assay type: cell-based; settings: S. aureus ATCC 29213
Source text: as §1, §2

S. aureus NCTC 8325 = assay: MIC assay; assay type: cell-based; settings: S. aureus NCTC 8325
Source text: as §1, §2

S. aureus JE2 = assay: MIC assay; assay type: cell-based; settings: S. aureus JE2
Source text: as §1, §2

S. aureus VRS1 = assay: MIC assay; assay type: cell-based; settings: S. aureus VRS1
Source text: as §1, §2

K. pneumoniae WGLW2 = assay: MIC assay; assay type: cell-based, Klebsiella pneumoniae; settings: K. pneumoniae WGLW2
Source text: as §1, §2

[2] = Staphylococcus aureus, Example 5, MRSA MW2, read-out: MIC
[3] = Staphylococcus aureus, Table 3, growing MRSA, read-out: MIC
[4] = Staphylococcus aureus, MRSA, PPARγ agonists, read-out: MICS against S. aureus MW2

O=C(O)c1c(Sc2ccccc2)c2cc(Cl)ccc2n1Cc1cccc(Cl)c1 [Analog 2b, 5-chloro-1-(3-chlorobenzyl)-3-(phenylthio)-1H-indole-2-carboxylic acid]
MIC (S. aureus (MRSA) MW2; Example 5, MRSA MW2): same MIC

Cn1c(C(=O)O)c(Sc2ccccc2)c2cc(Cl)ccc21 [Analog 5, 5-chloro-1-methyl-3-(phenylthio)-1H-indole-2-carboxylic acid]
MIC (S. aureus (MRSA) MW2; [2]): 64 µg/mL (≈ 201 µM)

O=C(O)c1c(Sc2ccc(Cl)cc2)c2cc(Cl)ccc2n1Cc1ccc(Cl)cc1 [Compound 4, 5-chloro-1-(4-chlorobenzyl)-3-((4-chlorophenyl)thio)-1H-indole-2-carboxylic acid]
HC50: median hemolytic concentration (human erythrocytes): 34 µg/mL
MIC (S. aureus (MRSA) MW2; [3]): 2 µg/mL (≈ 4.32 µM)

CC(C)(C)c1ccc(Sc2c(C(=O)O)n(Cc3ccc(Cl)cc3)c3ccc(Cl)cc23)cc1 [Compound 5, 3-((4-(tert-butyl)phenyl)thio)-5-chloro-1-(4-chlorobenzyl)-1H-indole-2-carboxylic acid]
HC50: median hemolytic concentration (human erythrocytes): 26 µg/mL
MIC (S. aureus (MRSA) MW2; [3]): 2 µg/mL (≈ 4.13 µM)

O=C(O)c1c(Oc2ccccc2)c2cc(Cl)ccc2n1Cc1ccc(Cl)cc1 [Compound 6, 5-chloro-1-(4-chlorobenzyl)-3-phenoxy-1H-indole-2-carboxylic acid]
HC50: median hemolytic concentration (human erythrocytes): >64 µg/mL
decrease in viability of persisters [1]: 3 log
MIC (S. aureus (MRSA) MW2; [3]): 4 µg/mL (≈ 9.7 µM)
antibiotic activity / potency relative to nTZDpa (S. aureus (MRSA) MW2): equipotent with nTZDpa

O=C(O)c1c(Oc2ccccc2)c2cc(Cl)ccc2n1Cc1ccc(Cl)c(Cl)c1 [Compound 10, 5-chloro-1-(3,4-dichlorobenzyl)-3-phenoxy-1H-indole-2-carboxylic acid]
HC50: median hemolytic concentration (human erythrocytes): >64 µg/mL
MIC (S. aureus (MRSA) MW2; [3]): 2 µg/mL (≈ 4.48 µM)

O=C(O)c1c(Oc2ccc(Cl)cc2)c2cc(Cl)ccc2n1Cc1ccc(Cl)cc1 [Compound 11, 5-chloro-1-(4-chlorobenzyl)-3-(4-chlorophenoxy)-1H-indole-2-carboxylic acid]
HC50: median hemolytic concentration (human erythrocytes): >64 µg/mL
MIC (S. aureus (MRSA) MW2; [3]): 2 µg/mL (≈ 4.48 µM)

O=C(O)c1c(Oc2ccc(Cl)c(Cl)c2)c2cc(Cl)ccc2n1Cc1ccc(Cl)cc1 [Compound 12, 5-chloro-1-(4-chlorobenzyl)-3-(3,4-dichlorophenoxy)-1H-indole-2-carboxylic acid]
HC50: median hemolytic concentration (human erythrocytes): 38 µg/mL
MIC (S. aureus (MRSA) MW2; [3]): 1 µg/mL (≈ 2.08 µM)

O=C(O)c1c(Oc2ccc(Br)cc2)c2cc(Cl)ccc2n1Cc1ccc(Cl)cc1 [Compound 13, 3-(4-bromophenoxy)-5-chloro-1-(4-chlorobenzyl)-1H-indole-2-carboxylic acid]
HC50: median hemolytic concentration (human erythrocytes): >64 µg/mL
MIC (S. aureus (MRSA) MW2; [3]): 2 µg/mL (≈ 4.07 µM)

O=C(O)c1c(Oc2ccc(I)cc2)c2cc(Cl)ccc2n1Cc1ccc(Cl)cc1 [Compound 14, 5-chloro-1-(4-chlorobenzyl)-3-(4-iodophenoxy)-1H-indole-2-carboxylic acid]
HC50: median hemolytic concentration (human erythrocytes): >64 µg/mL
MIC (S. aureus (MRSA) MW2; [3]): 1 µg/mL (≈ 1.86 µM)

O=C(O)c1c(Cc2ccccc2)c2cc(Cl)ccc2n1Cc1ccc(Cl)cc1 [Compound S12, 3-benzyl-5-chloro-1-(4-chlorobenzyl)-1H-indole-2-carboxylic acid]
antibiotic activity / potency relative to nTZDpa (S. aureus (MRSA) MW2): less potency

OCc1c(Oc2ccccc2)c2cc(Cl)ccc2n1Cc1ccc(Cl)cc1 [Compound S13, (5-chloro-1-(4-chlorobenzyl)-3-phenoxy-1H-indol-2-yl)methanol]
antibiotic activity / potency relative to nTZDpa (S. aureus (MRSA) MW2): reduction of antibiotic activity

NC[C@H]1O[C@H](O[C@H]2[C@H](O)[C@@H](O[C@H]3O[C@H](CO)[C@@H](O)[C@H](N)[C@H]3O)[C@H](N)C[C@@H]2N)[C@H](O)[C@@H](O)[C@@H]1O [Kanamycin, kanamysin]
FICI (fractional inhibitory concentration index) (MRSA MW2): 0.5

Cc1onc(-c2ccccc2)c1C(=O)N[C@@H]1C(=O)N2[C@@H]1SC(C)(C)[C@@H]2C(=O)O [Oxa, oxacillin]
Minimum inhibitory concentration (P. aeruginosa PA14): >64 µg/mL
Minimum inhibitory concentration (E.faecium E007): >64 µg/mL
Minimum inhibitory concentration (E. faecium WB312): >64 µg/mL
Minimum inhibitory concentration (E. faecium WC196): >64 µg/mL
Minimum inhibitory concentration (E. faecium C68): >64 µg/mL
Minimum inhibitory concentration (E. aerogenes ATCC 13048): >64 µg/mL
Minimum inhibitory concentration (A. baumannii ATCC 17978): >64 µg/mL
Minimum inhibitory concentration (S. aureus (MRSA) MW2; S. aureus (MRSA) MW2): 64 µg/mL (≈ 159 µM)
Minimum inhibitory concentration (S. aureus Newman): 0.5 µg/mL (≈ 1.25 µM)
Minimum inhibitory concentration (S. aureus ATCC 33591): >64 µg/mL
Minimum inhibitory concentration (S. aureus ATCC 29213): 0.5 µg/mL (≈ 1.25 µM)
Minimum inhibitory concentration (S. aureus NCTC 8325): 0.5 µg/mL (≈ 1.25 µM)
Minimum inhibitory concentration (S. aureus JE2): 64 µg/mL (≈ 159 µM)
Minimum inhibitory concentration (S. aureus VRS1): >64 µg/mL
Minimum inhibitory concentration (K. pneumoniae WGLW2): >64 µg/mL

CO[C@H]1/C=C/O[C@@]2(C)Oc3c(C)c(O)c4c(O)c(c(/C=N/N5CCN(C)CC5)c(O)c4c3C2=O)NC(=O)/C(C)=C\C=C\[C@H](C)[C@H](O)[C@@H](C)[C@@H](O)[C@@H](C)[C@H](OC(C)=O)[C@@H]1C [Rifampicin, rifampicin]
FICI (fractional inhibitory concentration index) (MRSA MW2): 1

O=C(O)c1c(Sc2ccccc2)c2cc(Cl)ccc2n1Cc1ccccc1 [S4 (analog 2), 1-benzyl-5-chloro-3-(phenylthio)-1H-indole-2-carboxylic acid]
MIC (S. aureus (MRSA) MW2; [2]): 16 µg/mL (≈ 40.6 µM)

[H]/N=C(/N)N[C@H]1[C@H](O)[C@@H](O)[C@H](O[C@@H]2O[C@@H](C)[C@](O)(C=O)[C@H]2O[C@@H]2O[C@@H](CO)[C@H](O)[C@@H](O)[C@@H]2NC)[C@@H](N/C(N)=N\[H])[C@@H]1O [Streptomycin, streptomycin]
FICI (fractional inhibitory concentration index) (MRSA MW2): 0.37

CN(C)[C@@H]1C(O)=C(C(N)=O)C(=O)[C@@]2(O)C(O)=C3C(=O)c4c(O)cccc4[C@@](C)(O)[C@H]3C[C@@H]12 [Tetracycline, tetracycline]
FICI (fractional inhibitory concentration index) (MRSA MW2): 1.125

NC[C@H]1O[C@H](O[C@H]2[C@H](O)[C@@H](O[C@H]3O[C@H](CO)[C@@H](O)[C@H](N)[C@H]3O)[C@H](N)C[C@@H]2N)[C@H](N)C[C@@H]1O [Tobramycin, tobaramysin]
FICI (fractional inhibitory concentration index) (MRSA MW2): 0.31

CCc1ccc(CCOc2ccc(CC3SC(=O)NC3=O)cc2)nc1 (stereo not drawn) [pioglitazone, reference compound]
MIC (S. aureus (MRSA) MW2; [4]): > 64 µg/mL

CN(CCOc1ccc(CC2SC(=O)NC2=O)cc1)c1ccccn1 (stereo not drawn) [rosiglitazone, reference compound]
MIC (S. aureus (MRSA) MW2; [4]): > 64 µg/mL
